This is an account of results in US20020173549A1, “Compositions and methods for treatment of mild cognitive impairment” (priority 2000, published 2002).

The test system of one assay is APP holoprotein. Description: Cell-associated APP holoprotein in cultured astrocytes (Western blot). Format: cell-based, rat. On the set-up: basal APPh levels (compound by itself): unit of the concentration uncertain. On the procedure:
(§1) Astrocytes are isolated from cortices from postnatal rats by methods standard in the art. In brief, dissected cortices are dissociated by trypsinization and trituration through a flame-polished Pasteur pipette. Cells are plated onto poly-L-lysine coated 35- or 100 mm culture dishes at densities of about 10-25 cells/mm^2. The initial culture media, minimal essential medium (MEM, Gibco) containing 10% horse serum (BioWhittaker), are aspirated after 2-5 h after plating to remove unattached cells and debris, and replaced with MEM containing 7.5% fetal bovine serum (FBS, BioWhittaker). Half the media is replaced with MEM/7.5% FBS twice weekly. Cells are kept at 37° C. in a humidified 5% CO2/95% air incubator. Media are changed twice weekly. […] Pharmacological manipulations are performed in serum-free media on 7-14 DIV confluent astrocytes.
To detect cell-associated proteins (APP or GFAP), astrocytes from 35 mm dishes are scraped into lysis buffer (60 mm Tris/HCl, 4% SDS, 20% glycerol, 1 mm dithiothreitol), ultrasonicated and boiled for […]. The total amount of cell protein per dish, estimated using the bicinchoninic acid assay, is not altered by pharmacological treatments. Bromphenol blue (0.1%) is added to each sample and equal amounts of protein ([…]) are loaded on 10% SDS polyacrylamide gels.
The amount of media or cell protein loaded for sodium dodecyl sulfate-polyacrylamide gel electrophoresis (10-20% SDS PAGE; Bio-Rad) is normalized for the amount of protein per sample. Proteins (equivalent to 100 μg cell protein/lane) are separated by electrophoresis, electroblotted onto polyvinylidene difluoride membranes (Immobilon-P, Millipore) and blocked in Tris-buffered saline with 0.15% Tween 20 (TEST) containing 5% powdered milk for 30 min. After 2×10 mm rinses in TBST, the membranes are incubated in TEST containing an appropriate antibody. Monoclonal antibodies 22C11 and GFAP (both from Boehringer Mannheim) are used to detect the N-terminus of APP and glial fibrillary acidic protein respectively; antisera R37 and R98 (gifts of Dr. F. Kametani, Tokyo Institute of Psychiatry) are used to detected the C-terminus and KPI motifs of APP respectively; antiserum C8 (gift of Dr. D. Selkoe, Women's Hospital, Harvard Medical School, Cambridge, Mass.) is used to detect the C-terminus of APP.
After an overnight incubation, membranes are rinsed in TBST then treated for 1 h with a peroxidase-linked secondary antibody. After several rinses in TEST, protein bands are visualized on Kodak X-AR films by an enhanced chemiluminescence method (Amersham). Optical densities of the protein bands are quantitated by laser scanning densitometry (LICE, Bromma, Sweden), and normalized to the densities of those bands generated under control conditions.
Measurements of cellular and secreted proteins, or of mRNA in treatment groups are normalized against those of control groups which are prepared in parallel and loaded onto the same blot. Analysis of variance (ANOVA) and t-tests are used to evaluate differences between groups (significance level, p=0.05), using drug treatments as the independent variable.

The test system of the next assay is cAMP. In words: PGE2-induced cAMP increases in 10-day old rat cortical neurons. It is filed as cell-based. On the set-up: effect on basal cAMP levels: unit of the concentration uncertain. As to conditions: for effect on basal cAMP levels: no PGE2, cortical neurons; for effect on PGE2-stimulated cAMP levels: cortical neurons. On the procedure:
FIG. 5. Effect of Cannabinoids on Prostaglandin E2-Induced cAMP Increases in 10-Day Old Rat Cortical Neurons.
Levels of cyclic AMP are measured with an [8-^3H]-cAMP assay kit (Amersham TRK 432) in astrocytes grown on 35 mm dishes. In brief, after aspirating the medium and rinsing twice with 1 ml ice cold PBS, the cells are scraped in 0.8 mL ice cold ethanol and sonicated. The cell suspension is incubated for […] at room temperature, centrifuged and the supernatant is dried in a rotary evaporator. After resuspension in 120 μL Tris/EDTA buffer, two duplicate samples of 50 μl each are mixed with the binding protein, [8-^3H] adenosine 3′,5′-cyclic phosphate tracer and incubated at 2-4° C. for 2 h. A charcoal suspension (100 μL) is added to the samples before centrifugation and 200 μL of the supernatant is removed for scintillation counting. The amount of cyclic AMP (pmol/mg protein) is estimated by comparing to known standards, and normalized to the amounts of whole cell protein as determined by the bicinchoninic acid assay (Sigma).
Referring now to FIG. 5, cell cultures of 10-day old cortical neurons are used to assess the affect of anandamide (50 M), methanandamide (10 M), and 2-AG (50 M) on PGE2-stimulated cAMP levels. PGE2 (50 M) is found to elevate cAMP levels about 1.6-fold over basal (control).

The test system of a further assay is soluble APP (APPs). Description: Secreted soluble APP in astrocyte culture media (Western blot). It is filed as cell-based, rat. As to conditions: astrocytes. On the procedure:
as §1
To detect secreted APP, culture media is collected after drug treatments and phenylmethylsulfonyl fluoride is added to a final concentration of 2 mM. The media samples are then applied to Sephadex PD-b desalting columns (Pharmacia) and eluted with distilled water. […]
The amount of media or cell protein loaded for sodium dodecyl sulfate-polyacrylamide gel electrophoresis (10-20% SDS PAGE; Bio-Rad) is normalized for the amount of protein per sample. […] Monoclonal antibodies 22C11 and GFAP (both from Boehringer Mannheim) are used to detect the N-terminus of APP and glial fibrillary acidic protein respectively; antisera R37 and R98 (gifts of Dr. F. Kametani, Tokyo Institute of Psychiatry) are used to detected the C-terminus and KPI motifs of APP respectively; antiserum C8 (gift of Dr. D. Selkoe, Women's Hospital, Harvard Medical School, Cambridge, Mass.) is used to detect the C-terminus of APP.
After an overnight incubation, membranes are rinsed in TBST then treated for 1 h with a peroxidase-linked secondary antibody. […] Optical densities of the protein bands are quantitated by laser scanning densitometry (LICE, Bromma, Sweden), and normalized to the densities of those bands generated under control conditions. […]

The next assay concerns APP mRNA. Description: APP mRNA levels in cultured astrocytes (Northern blot). As to conditions: 1, 10 or 100 μM, 24 h. It is filed as cell-based, rat. On the procedure: as §1
Total RNA from astrocytes grown on 100 mm dishes is extracted by the acid guanidium thiocyanate-phenol chloroform method. […] The levels of APP mRNA are normalized to the amounts of G3PDH mRNA and expressed as a ratio to the levels of untreated, control cells.
Confluent monolayers of astrocytes prepared according to Example 8.1 are treated with serum-free media containing 50, 100, or 250 μM 8Br-cAMP for varying durations (1 h, 6 h, 12 h, or 24 h). Levels of cAMP in astrocytes are measured with a [8-^3H]-cAMP assay kit (Amersham TRK 432).

A further assay concerns Abeta. Description: Total Abeta media concentration in CHO cells transfected with human APP gene construct. On the set-up: unit of the concentration uncertain. It is filed as cell-based, Chinese Hamster. The source says: FIG. 3. Effect of Varying Concentrations of Resveratrol on Total Abeta Media Concentration in CHO Cells Transfected with Human APP Gene Construct at Four Hours.

On to `CCCCC/C=C\C/C=C\C/C=C\C/C=C\CCCC(=O)N[C@H](C)CO` [Methanandamide, methanandamide], for which the “effect on PGE2-stimulated APPh levels” value in the assay with APP holoprotein (10 M methanandamide compared with 50 μM anandamide, cultured astrocytes) is listed as “more efficacious than anandamide”. Also, the “effect on basal cAMP levels” value with cAMP (10 (unit uncertain)) is “no effect on basal levels”. Besides, the “effect on PGE2-stimulated cAMP levels” value with cAMP (10 M with PGE2 50 M) is listed as “inhibit the PGE2-induced increase in cAMP levels”.

Turning to `CCCCC[C@H](O)/C=C/[C@H]1[C@H](O)CC(=O)[C@@H]1C/C=C\CCCC(=O)O` [PGE2, prostaglandin E2], the “APP secreted in the media (110-130 kD)” value in the assay on soluble APP (APPs) (1, 10 or 100 μM, 24 h) was “also increased”. For the same compound, the “increase in APPh levels compared to controls” value in the assay on APP holoprotein (50 μM prostaglandin E2 alone, cultured astrocytes, two experiments) is listed as about 75%. The “increase in APPh levels” value in the assay with APP holoprotein (PGE2 alone, cultured astrocytes (FIG. 4)) is given as “three-fold”. Moreover, in the assay on APP mRNA, the “amounts of astrocytic APP mRNA (4.5 kb) relative to untreated cells” value was “significantly increases”. The “cAMP levels over basal (control)” value with cAMP (PGE2 50 M alone, 10-day old cortical neurons) was “about 1.6 fold”.

Take `Cc1c(C(=O)c2cccc3ccccc23)c2cccc3c2n1[C@H](CN1CCOCC1)CO3` [WIN55212-2]: in the assay on APP holoprotein (100 µM, cultured astrocytes), the “effect on APPh levels in the absence of PGE2” value is “no statistically significant effect”. In the assay with APP holoprotein (WIN55212-2 100 M added to PGE2, cultured astrocytes), the “increase in APPh levels with PGE2 stimulation” value is “limited to two-fold”.

In the case of `CCCCC/C=C\C/C=C\C/C=C\C/C=C\CCCC(=O)NCCO` [anandamide], the “increase in APPh levels over control in presence of PGE2” value in the assay on APP holoprotein (50 μM anandamide with 50 μM prostaglandin E2, cultured astrocytes) is listed as “about 55%”. Also, the “basal APPh levels (compound by itself)” value with APP holoprotein (50 µM, without PGE2, cultured astrocytes) was “reduce APPh levels below control values”. The “effect on PGE2-stimulated cAMP levels” value with cAMP (50 µM with PGE2 50 M) is “suppress the PGE2-induced stimulation”. Moreover, the “effect on basal cAMP levels” value in the assay with cAMP (50 (unit uncertain)) was “no effect on basal levels”.

On to `Oc1ccc(C=Cc2cc(O)cc(O)c2)cc1` [resveratrol], for which the “stimulation of APPs” value in the assay on soluble APP (APPs) (10 nM and intermediate concentrations, one hour) is “Significant stimulation”. Further, in the assay with soluble APP (APPs) (10 μM and higher, one hour, average of four experiments, p<0.05), the “formation of soluble APP (APPs) over control” value is “about two-fold over control”. In the assay on APP holoprotein (10 μM (so in the source) and intermediate concentrations, one hour, astrocytes, p<0.05), the “decrease in APP holoprotein” value is “significant decrease”. Moreover, the “levels of cellular amyloidogenic APP holoprotein” value in the assay on APP holoprotein (10 μM and higher, one hour, astrocytes, p<0.05) is given as “decreased to about half”. Besides, the “Abeta levels in the media” value is on record as “decrease to about half” in the assay on Abeta (100 (unit uncertain), four-hour treatment) and “not to differ from control” in the assay on Abeta (lower concentrations (0.1, 1.0, 10 (unit uncertain)), four hours).
